Among the data in ChEMBL document CHEMBL1146481, “Rediocides B-E, potent insecticides from Trigonostemon reidioides” (2004) are LD90 values, retold here.

This assay relates to Ctenocephalides felis. The assay is described as follows: Insecticidal activity against Ctenocephalides felis by anti-flea artificial membrane feeding system. The class given is functional.

Compound `CC(C)CC(=O)O[C@H]1/C=C/C=C/C(=O)O[C@H]2[C@@H](C)C[C@@H]3[C@]2(O)[C@H](O)[C@@]2(CO)O[C@H]2[C@H]2[C@H]4OC5(c6ccccc6)O[C@@H]([C@@H](C)[C@@]23O5)[C@@]4(O)[C@](C)(O)C[C@H]2CC[C@H]1[C@H]2C` [REDIOCIDE A] displayed an LD90 of 0.25 ppm.
The figure for `CC(C)CC(=O)O[C@H]1/C=C/C=C/C(=O)O[C@H]2[C@@H](C)C[C@@H]3[C@]2(O)[C@H](O)[C@@]2(CO)O[C@H]2[C@H]2[C@H]4OC5(c6ccccc6)O[C@@H]([C@@H](C)[C@@]23O5)[C@@]4(O)[C@](C)(O)CC2CCC1CC2` [REDIOCIDE B] is 0.25 ppm.
Then `C[C@H]1[C@@H]2CC[C@@H]1[C@@H](OC(=O)c1ccccc1)/C=C/C=C/C(=O)O[C@H]1[C@@H](C)C[C@@H]3[C@]1(O)[C@H](O)[C@@]1(CO)O[C@H]1[C@H]1[C@H]4OC5(c6ccccc6)O[C@@H]([C@@H](C)[C@@]13O5)[C@@]4(O)[C@](C)(O)C2` [REDIOCIDE C], with 0.5 ppm.
`C[C@@H]1[C@@H]2OC3(c4ccccc4)O[C@@H]4[C@@H]5[C@@H]6O[C@]6(C)[C@@H](O)[C@@]6(O)[C@@H](C[C@H](C)[C@@H]6OC(=O)/C=C/[C@@H]6O[C@H]6[C@H](OC(=O)c6ccccc6)C6CCC(CC6)C[C@@](C)(O)[C@@]42O)[C@]51O3` [REDIOCIDE D]: the LD90 is 0.25 ppm.
Then `CC(C)CC(=O)O[C@H]1/C=C/C=C/C(=O)O[C@H]2CC[C@@H]3[C@]2(O)[C@H](O)[C@@]2(CO)O[C@H]2[C@H]2[C@H]4OC5(c6ccccc6)O[C@@H]([C@@H](C)[C@@]23O5)[C@@]4(O)[C@](C)(O)C[C@H]2CC[C@H]1[C@H]2C` [REDIOCIDE E], with 0.5 ppm.
